According to ChEMBL document CHEMBL5236646, “Design, synthesis, and biological evaluation of BRD4 degraders” (Bioorg Med Chem, 2023):
Active and inactive are the calls of the source. The calls are words filed in the database; no cut-off is given here.

What was measured:
[1] = Inhibition of TGF-beta induced activation of human MRC5 cells assessed as residual BRD4 protein level at 0.1 uM by Western blot analysis (reference value: 96%); type: functional
[2] = Inhibition of TGF-beta induced activation of human MRC5 cells assessed as residual BRD4 protein level at 0.5 uM by Western blot analysis (reference value: 96%); type: functional
MM1.S = assay: Antiproliferative activity against human MM1.S cells assessed as inhibition of cell growth incubated for 72 hrs MTS assay; type: functional, cell-based
MV4-11 = assay: Antiproliferative activity against human […] cells assessed as inhibition of cell growth incubated for 72 hrs MTS assay; type: functional, cell-based; settings: MV4-11, 72 h
[3] = target: T1, Protein cereblon/Bromodomain-containing protein 4 (Homo sapiens) (UniProt O60885+Q96SW2); assay: Protac activity at CRBN/BRD4 in human MM1.S cells assessed as induction of BRD4 protein degradation by measuring residual activity at 0.03 uM incubated for 3 hrs by Western blot analysis relative to control; type: cell-based
T1 sequence (Q96SW2 whole entry, looked up, other chains not shown): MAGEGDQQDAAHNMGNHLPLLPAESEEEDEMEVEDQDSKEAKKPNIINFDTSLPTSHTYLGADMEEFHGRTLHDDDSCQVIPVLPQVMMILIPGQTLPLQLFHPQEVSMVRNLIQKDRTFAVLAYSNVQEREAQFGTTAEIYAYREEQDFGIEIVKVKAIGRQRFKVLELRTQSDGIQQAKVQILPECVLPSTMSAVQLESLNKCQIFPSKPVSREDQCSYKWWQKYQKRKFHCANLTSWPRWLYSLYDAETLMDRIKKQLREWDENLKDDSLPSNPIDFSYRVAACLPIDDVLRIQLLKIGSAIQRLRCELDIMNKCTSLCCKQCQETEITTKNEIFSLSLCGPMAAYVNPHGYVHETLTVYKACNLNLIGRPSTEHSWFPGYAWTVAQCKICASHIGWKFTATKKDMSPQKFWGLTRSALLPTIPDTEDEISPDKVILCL

[4] = target: T1, Protein cereblon/Bromodomain-containing protein 4 (Homo sapiens); assay: Protac activity at CRBN/BRD4 in human MM1.S cells assessed as induction of BRD4 protein degradation by measuring residual activity at 0.1 uM incubated for 3 hrs by Western blot analysis relative to control; type: cell-based
[5] = target: T1, Protein cereblon/Bromodomain-containing protein 4 (Homo sapiens); assay: Protac activity at CRBN/BRD4 in human MM1.S cells assessed as induction of BRD4 protein degradation by measuring residual activity at 0.3 uM incubated for 3 hrs by Western blot analysis relative to control; type: cell-based
[6] = target: T1, Protein cereblon/Bromodomain-containing protein 4 (Homo sapiens); assay: Protac activity at CRBN/BRD4 in human MV4-11 cells assessed as induction of BRD4 protein degradation by measuring residual activity at 0.01 uM incubated for 3 hrs by Western blot analysis relative to control; type: cell-based
[7] = target: T1, Protein cereblon/Bromodomain-containing protein 4 (Homo sapiens); assay: Protac activity at CRBN/BRD4 in human MV4-11 cells assessed as induction of BRD4 protein degradation by measuring residual activity at 0.03 uM incubated for 3 hrs by Western blot analysis relative to control; type: cell-based
[8] = target: T1, Protein cereblon/Bromodomain-containing protein 4 (Homo sapiens); assay: Protac activity at CRBN/BRD4 in human MV4-11 cells assessed as induction of BRD4 protein degradation by measuring residual activity at 0.09 uM incubated for 3 hrs by Western blot analysis relative to control; type: cell-based
[9] = target: T1, Protein cereblon/Bromodomain-containing protein 4 (Homo sapiens); assay: Protac activity at CRBN/BRD4 in human MM1.S cells assessed as induction of BRD4 protein degradation by measuring residual activity at 0.2 uM incubated for 3 hrs by Western blot analysis relative to control; type: cell-based
[10] = target: T1, Protein cereblon/Bromodomain-containing protein 4 (Homo sapiens); assay: Protac activity at CRBN/BRD4 in human MM1.S cells assessed as induction of BRD4 protein degradation by measuring residual activity at 0.6 uM incubated for 3 hrs by Western blot analysis relative to control; type: cell-based
[11] = target: T1, Protein cereblon/Bromodomain-containing protein 4 (Homo sapiens); assay: Protac activity at CRBN/BRD4 in human MM1.S cells assessed as induction of BRD4 protein degradation by measuring residual activity at 1.8 uM incubated for 3 hrs by Western blot analysis relative to control; type: cell-based
[12] = target: T1, Protein cereblon/Bromodomain-containing protein 4 (Homo sapiens); assay: Protac activity at CRBN/BRD4 in human MV4-11 cells assessed as induction of BRD4 protein degradation by measuring residual activity at 0.04 uM incubated for 3 hrs by Western blot analysis relative to control; type: cell-based
[13] = target: T1, Protein cereblon/Bromodomain-containing protein 4 (Homo sapiens); assay: Protac activity at CRBN/BRD4 in human MV4-11 cells assessed as induction of BRD4 protein degradation by measuring residual activity at 0.12 uM incubated for 3 hrs by Western blot analysis relative to control; type: cell-based
[14] = target: T1, Protein cereblon/Bromodomain-containing protein 4 (Homo sapiens); assay: Protac activity at CRBN/BRD4 in human MV4-11 cells assessed as induction of BRD4 protein degradation by measuring residual activity at 0.36 uM incubated for 3 hrs by Western blot analysis relative to control; type: cell-based
[15] = target: T1, Protein cereblon/Bromodomain-containing protein 4 (Homo sapiens); assay: Protac activity at CRBN/BRD4 in human MM1.S cells assessed as induction of BRD4 protein degradation by measuring residual activity at 1 uM incubated for 3 hrs by Western blot analysis relative to control; type: cell-based
[16] = target: T1, Protein cereblon/Bromodomain-containing protein 4 (Homo sapiens); assay: Protac activity at CRBN/BRD4 in human MV4-11 cells assessed as induction of BRD4 protein degradation by measuring residual activity at 0.02 uM incubated for 3 hrs by Western blot analysis relative to control; type: cell-based
[17] = target: T1, Protein cereblon/Bromodomain-containing protein 4 (Homo sapiens); assay: Protac activity at CRBN/BRD4 in human MV4-11 cells assessed as induction of BRD4 protein degradation by measuring residual activity at 0.06 uM incubated for 3 hrs by Western blot analysis relative to control; type: cell-based
[18] = target: T1, Protein cereblon/Bromodomain-containing protein 4 (Homo sapiens); assay: Protac activity at CRBN/BRD4 in human MV4-11 cells assessed as induction of BRD4 protein degradation by measuring residual activity at 0.18 uM incubated for 3 hrs by Western blot analysis relative to control; type: cell-based
[19] = target: T1, Protein cereblon/Bromodomain-containing protein 4 (Homo sapiens); assay: Protac activity at CRBN/BRD4 in human MM1.S cells assessed as downregulation of MYC protein expression at […] incubated for 3 hrs by Western blot analysis; type: cell-based
[20] = target: T1, Protein cereblon/Bromodomain-containing protein 4 (Homo sapiens); assay: Protac activity at CRBN/BRD4 in human MM1.S cells assessed as induction of BRD4 protein degradation by measuring residual activity at 0.07 uM incubated for 3 hrs by Western blot analysis relative to control; type: cell-based
[21] = target: T1, Protein cereblon/Bromodomain-containing protein 4 (Homo sapiens); assay: Protac activity at CRBN/BRD4 in human MV4-11 cells assessed as induction of BRD4 protein degradation by measuring residual activity at 30 nM measured after 6 hrs by Western blot analysis (reference value: 100%); type: cell-based
[22] = target: T1, Protein cereblon/Bromodomain-containing protein 4 (Homo sapiens); assay: Protac activity at CRBN/BRD4 in human MM1.S cells assessed as induction of BRD4 protein degradation by measuring residual activity at 100 nM measured after 6 hrs by Western blot analysis (reference value: 100%); type: cell-based
[23] = target: T1, Protein cereblon/Bromodomain-containing protein 4 (Homo sapiens); assay: Protac activity at CRBN/BRD4 in human MM1.S cells assessed as induction of BRD4 protein degradation by measuring residual activity at 300 nM measured after 6 hrs by Western blot analysis (reference value: 100%); type: cell-based
[24] = target: T1, Protein cereblon/Bromodomain-containing protein 4 (Homo sapiens); assay: Protac activity at CRBN/BRD4 in human MM1.S cells assessed as induction of BRD4 protein degradation by measuring residual activity at 1000 nM measured after 6 hrs by Western blot analysis (reference value: 100%); type: cell-based
[25] = target: T1, Protein cereblon/Bromodomain-containing protein 4 (Homo sapiens); assay: Protac activity at CRBN/BRD4 in human MV4-11 cells assessed as induction of BRD4 protein degradation by measuring residual activity at 10 nM measured after 6 hrs by Western blot analysis (reference value: 100%); type: cell-based
[26] = target: T1, Protein cereblon/Bromodomain-containing protein 4 (Homo sapiens); assay: Protac activity at CRBN/BRD4 in human MV4-11 cells assessed as induction of BRD4 protein degradation by measuring residual activity at 100 nM measured after 6 hrs by Western blot analysis (reference value: 100%); type: cell-based

Compound	IC50 (MM1.S) [nM]	IC50 (MV4-11) [nM]	Activity [3] [%]	Activity [4] [%]	Activity [5] [%]	Activity [6] [%]	Activity [7] [%]	Activity [8] [%]	Activity [9] [%]	Activity [10] [%]	Activity [19]	other results
COC(=O)c1ccc2c(c1)NC(=O)/C2=C(\Nc1ccc(N(C)C(=O)CN2CCN(C)CC2)cc1)c1ccccc1 [NINTEDANIB]												Activity [1]: 88%; Activity [2]: 71%
Cc1sc2c(c1C)C(c1ccc(Cl)cc1)=N[C@@H](CC(=O)NCCNC(=O)c1ccc(COc3cccc4c3CN(C3CCC(=O)NC3=O)C4=O)cc1)c1nnc(C)n1-2 (stereo not given in full)	182	18	99	92	89	141	141	120				
Cc1sc2c(c1C)C(c1ccc(Cl)cc1)=N[C@@H](CC(=O)NCCCCNC(=O)c1ccc(CNc3cccc4c3C(=O)N(C3CCC(=O)NC3=O)C4=O)cc1)c1nnc(C)n1-2 (stereo not given in full)	602	128							144	141		Activity [11]: 139%; Activity [12]: 121%; Activity [13]: 99%; Activity [14]: 131%
Cc1sc2c(c1C)C(c1ccc(Cl)cc1)=N[C@@H](CC(=O)NCCNC(=O)c1ccc(COc3cccc4c3C(=O)N(C3CCC(=O)NC3=O)C4=O)cc1)c1nnc(C)n1-2 (stereo not given in full)	544	48		117	136							Activity [15]: 123%; Activity [16]: 126%; Activity [17]: 102%; Activity [18]: 82%
Cc1sc2c(c1C)C(c1ccc(Cl)cc1)=N[C@@H](CC(=O)NCCCNC(=O)c1ccc(COc3cccc4c3C(=O)N(C3CCC(=O)NC3=O)C4=O)cc1)c1nnc(C)n1-2 (stereo not given in full)	302	28				89	66	78	108	84	inactive	Activity [20]: 126%
Cc1sc2c(c1C)C(c1ccc(Cl)cc1)=N[C@@H](CC(=O)NCCCCNC(=O)COc1cccc3c1C(=O)N(C1CCC(=O)NC1=O)C3=O)c1nnc(C)n1-2 (stereo not given in full)	141	13	109	87	54	137	132	48			Active	Activity [21]: 14%; Activity [22]: 26%; Activity [23]: 43%; Activity [24]: 40%; Activity [25]: 21%; Activity [26]: 0%
